One assay concerns the target T1, Aurora-A (Mus musculus, UniProt P97477).
T1 construct: followed by the full length protein encoding the murine Aurora-A; polyhistidine (N); made in house; host or cells: sf9 insect cells
T1 sequence (P97477 1-395): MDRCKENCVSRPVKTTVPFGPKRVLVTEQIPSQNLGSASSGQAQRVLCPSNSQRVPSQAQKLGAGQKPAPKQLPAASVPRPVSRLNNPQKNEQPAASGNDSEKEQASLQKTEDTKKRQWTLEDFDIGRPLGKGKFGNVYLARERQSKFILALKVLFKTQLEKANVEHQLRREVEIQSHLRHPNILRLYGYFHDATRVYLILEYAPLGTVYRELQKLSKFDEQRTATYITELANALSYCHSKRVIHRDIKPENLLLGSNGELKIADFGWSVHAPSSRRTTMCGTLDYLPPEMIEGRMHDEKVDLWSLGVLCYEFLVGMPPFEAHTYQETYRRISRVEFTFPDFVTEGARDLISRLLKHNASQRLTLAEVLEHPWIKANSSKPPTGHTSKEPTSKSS
The assay can be described thus: Aurora-A Screening Assay. It is filed as biochemical, murine.

A further assay deals with T2, HER-2 (Homo sapiens, UniProt P04626).
T2 construct: the nucleotides encoding amino acids 679 to 1255 of HER-2; purchased Proqinase (Freiburg, Germany)
The assay can be described thus: HER-2 Kinase Assay. It is filed as biochemical. The method, boiled down: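 GST-HIS6-thrombin fusion of HER-2 residues 679–1255, assayed with biotinylated polyGluTyr, 1 μM ATP plus γ-33P-ATP, Mg2+, Mn2+ and vanadate in Hepes pH 7.5 for 1 h at 30 °C. Incorporation read by streptavidin Flashplate scintillation counting; IC50 values, or % inhibition at 1 μM.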

In another assay the target is T3, c-Src kinase (Homo sapiens, UniProt P12931).
T3 construct: purchased Upstate Biotechnology, Lake Placid, N.Y
The assay can be described thus: c-Src Kinase Assay. In kind it is biochemical. The following applies: for inhibition at 2 µM: test concentration of 2 μM, read-out: c-Src percent inhibition. On the procedure:
A mixture of a 10× kinase buffer (80 mM MOPS at pH 7.0, 2 mM EDTA and 100 mM Magnesium Chloride), ATP (5 μM final from a 10 mM stock), a Cdc2 peptide KVEKIGEGTYVVYK (100 μM final from a 2.5 mM stock), γ-^33P ATP (10 μCi/μL stock) and water (20 μL/well) was added to each well of a Streptavidin Flashplate.
Test compound in 100% DMSO (0.5 μL) was added to the appropriate wells. Diluted c-Src kinase (human) (Upstate Biotechnology, Lake Placid, N.Y.) (diluted in a buffer consisting of 20 mM MOPS at pH 7.0, 1 mM EDTA, β-mercaptoethanol (0.1%), Brij-35 (0.01%), glycerol (5%) and 1 mg/mL bovine serum albumin) (2.5 μL) was added to the wells to initiate the reactions. The reaction plates were incubated at 30° C. for 40 min. The reaction was terminated by the addition of a 3% phosphoric acid solution (5 μL). The reaction product (10 μL) was spotted onto a P30 filtermat and washed for 5 minutes in phosphoric acid (75 mM). The wash sequence was repeated two more times, followed with one final wash in methanol. The plates were then dried, sealed and read on the TopCount scintillation counter after adding 30 μL scintillation fluid.
Percent inhibition was derived according to the procedure described in Example 2. For those compounds without an IC50, the percent inhibition results are shown at a test concentration of 2 μM.

The target of another assay is T4, VEGF-R2 (Rattus norvegicus, UniProt O08775).
T4 construct: polyhistidine (N)
The assay can be described thus: VEGF-R2 Screening Assay. In kind it is biochemical.

T2 sequence (P04626 679-1255): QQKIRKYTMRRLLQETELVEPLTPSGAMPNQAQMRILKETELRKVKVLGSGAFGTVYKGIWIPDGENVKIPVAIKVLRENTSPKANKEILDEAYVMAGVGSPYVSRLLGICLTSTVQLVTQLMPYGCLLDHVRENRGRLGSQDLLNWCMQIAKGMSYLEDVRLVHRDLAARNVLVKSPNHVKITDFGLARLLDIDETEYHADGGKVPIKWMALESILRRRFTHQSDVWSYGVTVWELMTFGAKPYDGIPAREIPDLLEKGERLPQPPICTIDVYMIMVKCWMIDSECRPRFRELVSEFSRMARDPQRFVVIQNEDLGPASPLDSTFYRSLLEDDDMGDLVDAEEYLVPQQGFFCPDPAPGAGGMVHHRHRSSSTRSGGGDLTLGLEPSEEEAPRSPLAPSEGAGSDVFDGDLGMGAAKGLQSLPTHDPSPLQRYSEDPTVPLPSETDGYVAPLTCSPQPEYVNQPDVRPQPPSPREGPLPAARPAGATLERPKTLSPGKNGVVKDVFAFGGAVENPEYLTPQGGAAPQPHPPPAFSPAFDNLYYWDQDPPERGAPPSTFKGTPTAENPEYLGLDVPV
T3 sequence (P12931 whole entry): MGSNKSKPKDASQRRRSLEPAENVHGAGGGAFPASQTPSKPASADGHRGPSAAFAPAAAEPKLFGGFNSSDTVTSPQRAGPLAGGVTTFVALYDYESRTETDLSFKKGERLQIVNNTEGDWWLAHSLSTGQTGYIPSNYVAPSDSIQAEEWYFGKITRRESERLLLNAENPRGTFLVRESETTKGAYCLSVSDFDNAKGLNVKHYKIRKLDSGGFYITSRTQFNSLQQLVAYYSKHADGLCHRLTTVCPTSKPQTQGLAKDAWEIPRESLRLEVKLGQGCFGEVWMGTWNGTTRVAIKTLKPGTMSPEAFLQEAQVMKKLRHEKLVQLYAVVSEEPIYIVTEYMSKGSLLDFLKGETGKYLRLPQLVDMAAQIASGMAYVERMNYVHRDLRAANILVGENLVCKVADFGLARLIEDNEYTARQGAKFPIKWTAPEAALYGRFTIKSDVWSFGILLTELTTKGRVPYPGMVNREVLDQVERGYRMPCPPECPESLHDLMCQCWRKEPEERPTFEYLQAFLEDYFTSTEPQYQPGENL
T4 sequence (O08775 786-1343): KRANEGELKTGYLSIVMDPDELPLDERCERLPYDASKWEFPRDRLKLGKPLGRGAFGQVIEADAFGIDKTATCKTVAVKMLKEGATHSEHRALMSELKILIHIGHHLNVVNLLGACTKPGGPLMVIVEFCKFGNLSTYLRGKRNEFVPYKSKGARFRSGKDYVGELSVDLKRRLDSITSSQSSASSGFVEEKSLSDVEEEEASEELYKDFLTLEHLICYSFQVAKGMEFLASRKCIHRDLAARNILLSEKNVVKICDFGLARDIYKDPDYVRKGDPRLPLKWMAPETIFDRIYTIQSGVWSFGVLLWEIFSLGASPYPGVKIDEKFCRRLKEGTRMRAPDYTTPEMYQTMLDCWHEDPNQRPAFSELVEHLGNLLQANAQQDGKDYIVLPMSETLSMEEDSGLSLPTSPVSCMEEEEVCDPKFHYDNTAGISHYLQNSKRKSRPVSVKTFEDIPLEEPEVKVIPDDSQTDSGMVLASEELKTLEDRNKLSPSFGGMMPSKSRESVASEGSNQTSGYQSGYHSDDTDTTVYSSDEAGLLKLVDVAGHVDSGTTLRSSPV

As to `N#Cc1cnc2sc(C(=O)Nc3ccc(CN4CCOCC4)cc3)c3c2c1N(c1c(Cl)ccc2c1OCO2)C(=O)N3` [Cpd 4, 5-(5-chloro-benzo[1,3]dioxol-4-yl)-6-cyano-4-oxo-4,5-dihydro-3H-1-thia-3,5,8-triaza-acenaphthylene-2-carboxylic acid (4-morpholin-4-ylmethyl-phenyl)-amide], the IC50 (usually the point on the concentration scale where inhibition reaches its midpoint) on Aurora-A was 10.6 µM; against HER-2 it was 5.35 µM; at c-Src kinase, 0.0574 µM; against VEGF-R2, > 10 µM.

As for `COc1cc(N2C(=O)Nc3c(C(=O)Nc4ccc(CN5CCOCC5)cc4)sc4ncc(C#N)c2c34)c(Cl)cc1Cl` [Cpd 5, 6-cyano-5-(2,4-dichloro-5-methoxy-phenyl)-4-oxo-4,5-dihydro-3H-1-thia-3,5,8-triaza-acenaphthylene-2-carboxylic acid (4-morpholin-4-ylmethyl-phenyl)-amide], the IC50 at Aurora-A was > 10 µM; at HER-2 it was > 10 µM; on c-Src kinase it was 0.355 µM; on VEGF-R2 it was > 100 µM.

As to `COc1cc(N2C(=O)Nc3c(C(=O)Nc4ccc(CCN5CCOCC5)cc4)sc4ncc(C#N)c2c34)c(Cl)cc1Cl` [Cpd 6, 6-cyano-5-(2,4-dichloro-5-methoxy-phenyl)-4-oxo-4,5-dihydro-3H-1-thia-3,5,8-triaza-acenaphthylene-2-carboxylic acid [4-(2-morpholin-4-yl-ethyl)-phenyl]-amide], the IC50 against Aurora-A is > 10 µM; against HER-2, ~100 µM; at c-Src kinase, 0.368 µM; against VEGF-R2, > 100 µM.

Take `CCOC(=O)c1sc2nc(N3CCOCC3)c(C#N)c3c2c1NC(=O)N3c1c(Cl)ccc2c1OCO2` [Cpd 7, 5-(5-chloro-benzo[1,3]dioxol-4-yl)-6-cyano-7-morpholin-4-yl-4-oxo-4,5-dihydro-3H-1-thia-3,5,8-triaza-acenaphthylene-2-carboxylic acid ethyl ester]: the results for the IC50 on Aurora-A, against HER-2 and against VEGF-R2 were > 10 µM, > 100 µM and > 100 µM, respectively. Also, at c-Src kinase, the inhibition (in general, the relative decrease from the control value, in per cent) at 2 µM was -1%.

For the compound `N#Cc1c(N2CCOCC2)nc2sc(C(=O)Nc3ccc(CN4CCOCC4)cc3)c3c2c1N(c1c(Cl)ccc2c1OCO2)C(=O)N3` [Cpd 8, 5-(5-chloro-benzo[1,3]dioxol-4-yl)-6-cyano-7-morpholin-4-yl-4-oxo-4,5-dihydro-3H-1-thia-3,5,8-triaza-acenaphthylene-2-carboxylic acid (4-morpholin-4-ylmethyl-phenyl)-amide], the values for the IC50 on Aurora-A, at HER-2 and at VEGF-R2 were 6.47 µM, ~100 µM and 14.1 µM, respectively. Also, the inhibition at 2 µM on c-Src kinase was -21%.

Take `Cc1nc2sc(C(=O)Nc3ccc(CN4CCOCC4)cc3)c3c2c(c1C#N)N(c1c(Cl)ccc2c1OCO2)C(=O)N3` [Cpd 9, 5-(5-chloro-benzo[1,3]dioxol-4-yl)-6-cyano-7-methyl-4-oxo-4,5-dihydro-3H-1-thia-3,5,8-triaza-acenaphthylene-2-carboxylic acid (4-morpholin-4-ylmethyl-phenyl)-amide]: the values for the IC50 at Aurora-A, against HER-2 and at VEGF-R2 were > 1 µM, > 10 µM and > 10 µM, respectively. At c-Src kinase, the inhibition at 2 µM is 11%.

With `CN1CCC(NC(=O)c2sc3ncc(C#N)c4c3c2NC(=O)N4c2c(Cl)ccc3c2OCO3)CC1` [Cpd 10, 5-(5-chloro-benzo[1,3]dioxol-4-yl)-6-cyano-4-oxo-4,5-dihydro-3H-1-thia-3,5,8-triaza-acenaphthylene-2-carboxylic acid (1-methyl-piperidin-4-yl)-amide], the half-maximal inhibitory concentration (IC50) is 13.3 µM on Aurora-A, 7.16 µM against HER-2, 0.087 µM against c-Src kinase and ~100 µM against VEGF-R2.

On to `N#Cc1cnc2sc(C(=O)Nc3ccc(CCN4CCCCC4)cc3)c3c2c1N(c1c(Cl)ccc2c1OCO2)C(=O)N3` [Cpd 11, 5-(5-chloro-benzo[1,3]dioxol-4-yl)-6-cyano-4-oxo-4,5-dihydro-3H-1-thia-3,5,8-triaza-acenaphthylene-2-carboxylic acid [4-(2-piperidin-1-yl-ethyl)-phenyl]-amide], for which the IC50 was > 1 µM against Aurora-A, 2.91 µM against HER-2, 0.0712 µM on c-Src kinase and > 100 µM against VEGF-R2.

With `CN1CCN(CCc2ccc(NC(=O)c3sc4ncc(C#N)c5c4c3NC(=O)N5c3c(Cl)ccc4c3OCO4)cc2)CC1` [Cpd 12, 5-(5-chloro-benzo[1,3]dioxol-4-yl)-6-cyano-4-oxo-4,5-dihydro-3H-1-thia-3,5,8-triaza-acenaphthylene-2-carboxylic acid {4-[2-(4-methyl-piperazin-1-yl)-ethyl]-phenyl}-amide], the IC50 against Aurora-A is ~10 µM; on HER-2, 5.55 µM; on VEGF-R2, > 100 µM. Also, the inhibition at 2 µM at c-Src kinase was determined as 91%.

Take `COC1CCN(Cc2ccc(NC(=O)c3sc4ncc(C#N)c5c4c3NC(=O)N5c3c(Cl)ccc4c3OCO4)cc2)CC1` [Cpd 18, 5-(5-chloro-benzo[1,3]dioxol-4-yl)-6-cyano-4-oxo-4,5-dihydro-3H-1-thia-3,5,8-triaza-acenaphthylene-2-carboxylic acid [4-(4-methoxy-piperidin-1-ylmethyl)-phenyl]-amide]: the IC50 against Aurora-A was > 1 µM; against HER-2, 1.23 µM; against VEGF-R2 it was > 10 µM.

Regarding `CN(C)C1CCN(C(=O)c2sc3ncc(C#N)c4c3c2NC(=O)N4c2c(Cl)ccc3c2OCO3)CC1` [Cpd 41, 5-(5-chloro-benzo[1,3]dioxol-4-yl)-2-(4-dimethylamino-piperidine-1-carbonyl)-4-oxo-4,5-dihydro-3H-1-thia-3,5,8-triaza-acenaphthylene-6-carbonitrile], the concentration for half-maximal inhibition (IC50) on Aurora-A is > 10 µM; against HER-2, 13.5 µM; against VEGF-R2, > 100 µM.

For `CN(C)C1CCN(Cc2ccc(NC(=O)c3sc4ncc(C#N)c5c4c3NC(=O)N5c3c(Cl)ccc4c3OCO4)cc2)CC1` [Cpd 42, 5-(5-chloro-benzo[1,3]dioxol-4-yl)-6-cyano-4-oxo-4,5-dihydro-3H-1-thia-3,5,8-triaza-acenaphthylene-2-carboxylic acid [4-(4-dimethylamino-piperidin-1-ylmethyl)-phenyl]-amide], the IC50 against Aurora-A was > 10 µM; on HER-2, > 1 µM; at VEGF-R2, > 100 µM.

`COc1cc(NC(=O)c2sc3ncc(C#N)c4c3c2NC(=O)N4c2ccc(Oc3ccccc3)cc2)ccc1CN1CCOCC1` [Cpd 45, 6-cyano-4-oxo-5-(4-phenoxy-phenyl)-4,5-dihydro-3H-1-thia-3,5,8-triaza-acenaphthylene-2-carboxylic acid (3-methoxy-4-morpholin-4-ylmethyl-phenyl)-amide]: the IC50 at Aurora-A is > 100 µM; against HER-2 it was 0.0836 µM; at VEGF-R2, > 100 µM.

In the case of `CC(C)(C)OC(=O)NC1CCN(Cc2ccc(NC(=O)c3sc4ncc(C#N)c5c4c3NC(=O)N5c3c(Cl)ccc4c3OCO4)cc2)CC1` [Cpd 46, [1-(4-{[5-(5-chloro-benzo[1,3]dioxol-4-yl)-6-cyano-4-oxo-4,5-dihydro-3H-1-thia-3,5,8-triaza-acenaphthylene-2-carbonyl]-amino}-benzyl)-piperidin-4-yl]-carbamic acid tert-butyl ester], the IC50 against Aurora-A is > 1 µM; on HER-2 it was 0.134 µM; at VEGF-R2, > 100 µM.

Regarding `N#Cc1cnc2sc(C(=O)Nc3ccc(CCN4CCCCC4)cc3)c3c2c1N(c1ccc(Oc2ccccc2)cc1)C(=O)N3` [Cpd 48, 6-cyano-4-oxo-5-(4-phenoxy-phenyl)-4,5-dihydro-3H-1-thia-3,5,8-triaza-acenaphthylene-2-carboxylic acid [4-(2-piperidin-1-yl-ethyl)-phenyl]-amide], the IC50 against Aurora-A is > 100 µM; at HER-2 it was > 10 µM; on VEGF-R2 it was > 100 µM.

Consider `N#Cc1cnc2sc(C(=O)Nc3ccc(CN4CCCCC4)cc3)c3c2c1N(c1ccc(Oc2ccccc2)cc1)C(=O)N3` [Cpd 49, 6-cyano-4-oxo-5-(4-phenoxy-phenyl)-4,5-dihydro-3H-1-thia-3,5,8-triaza-acenaphthylene-2-carboxylic acid (4-piperidin-1-ylmethyl-phenyl)-amide], for which the IC50 against Aurora-A is > 100 µM; at HER-2, 0.836 µM; against VEGF-R2 it was > 100 µM.

(Values after patent US7427625B2, “Substituted thiatriazaacenaphthylene-6-carbonitrile kinase inhibitors” (Janssen Pharmaceutica, N.V., priority 2006, dated 2008).)
